Converted amounts (≈) assume the structure as drawn.

Series [1] in a line: Metabolic stability in mouse liver microsomes assessed as parent compound remaining at 1 uM preincubated for 5 mins followed by NADPH addition after 30 mins by LC-MS/MS analysis. It is filed as ADME, Microsome. Conditions: read-out: Stability. (In general: Microsomes from liver hold many membrane-bound enzymes, among them those of drug oxidation.)
Series [2] can be described thus: Metabolic stability in rat liver microsomes assessed as parent compound remaining at 1 uM preincubated for 5 mins followed by NADPH addition after 30 mins by LC-MS/MS analysis. It is filed as ADME, Microsome. The following applies: read-out: Stability.
The nature of series [3]: Metabolic stability in human liver microsomes assessed as parent compound remaining at 1 uM preincubated for 5 mins followed by NADPH addition after 30 mins by LC-MS/MS analysis. Format: ADME, Microsome. The following applies: read-out: Stability.
Series [4] addresses T1, Nuclear receptor ROR-gamma (Homo sapiens, UniProt P51449).
T1 sequence (P51449 whole entry): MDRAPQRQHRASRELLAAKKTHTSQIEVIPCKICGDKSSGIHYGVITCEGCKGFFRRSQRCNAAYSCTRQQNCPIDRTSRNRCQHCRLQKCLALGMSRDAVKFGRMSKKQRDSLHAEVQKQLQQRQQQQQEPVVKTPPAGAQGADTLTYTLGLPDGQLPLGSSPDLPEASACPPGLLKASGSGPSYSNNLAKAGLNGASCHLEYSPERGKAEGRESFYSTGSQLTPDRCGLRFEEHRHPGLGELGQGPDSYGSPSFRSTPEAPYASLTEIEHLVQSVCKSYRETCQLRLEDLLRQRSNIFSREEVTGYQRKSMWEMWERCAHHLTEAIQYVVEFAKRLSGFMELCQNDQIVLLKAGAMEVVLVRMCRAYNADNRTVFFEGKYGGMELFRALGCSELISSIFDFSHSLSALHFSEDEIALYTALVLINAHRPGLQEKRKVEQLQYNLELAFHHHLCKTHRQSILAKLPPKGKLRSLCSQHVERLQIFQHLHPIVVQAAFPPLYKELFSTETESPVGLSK
Nature of the series: Transactivation of recombinant GAL4-DBD fused RORgammat LBD (unknown origin) expressed in HEK293T cells incubated for 18 to 24 hrs by dual-Glo luciferase assay. Format: cell-based.

Series [5] has as its target Cytochrome P450 2D6 (Homo sapiens, UniProt P10635). Kind of series: Inhibition of CYP2D6 in human liver microsomes using dextromethorphan as substrate preincubated for 5 mins followed by NADPH addition measured after 10 mins by LC-MS/MS analysis.
Series [6] concerns the target Cytochrome P450 2C9 (Homo sapiens, UniProt P11712). Kind of series: Inhibition of CYP2C9 in human liver microsomes using diclofenac as substrate preincubated for 5 mins followed by NADPH addition measured after 10 mins by LC-MS/MS analysis.
Series [7] concerns the target Cytochrome P450 3A4 (Homo sapiens, UniProt P08684). Kind of series: Inhibition of CYP3A4 in human liver microsomes using testosterone as substrate preincubated for 5 mins followed by NADPH addition measured after 10 mins by LC-MS/MS analysis.
The target of series [8] is T2, Cytochrome P450 1A2 (Homo sapiens, UniProt P05177).
T2 sequence (P05177 whole entry): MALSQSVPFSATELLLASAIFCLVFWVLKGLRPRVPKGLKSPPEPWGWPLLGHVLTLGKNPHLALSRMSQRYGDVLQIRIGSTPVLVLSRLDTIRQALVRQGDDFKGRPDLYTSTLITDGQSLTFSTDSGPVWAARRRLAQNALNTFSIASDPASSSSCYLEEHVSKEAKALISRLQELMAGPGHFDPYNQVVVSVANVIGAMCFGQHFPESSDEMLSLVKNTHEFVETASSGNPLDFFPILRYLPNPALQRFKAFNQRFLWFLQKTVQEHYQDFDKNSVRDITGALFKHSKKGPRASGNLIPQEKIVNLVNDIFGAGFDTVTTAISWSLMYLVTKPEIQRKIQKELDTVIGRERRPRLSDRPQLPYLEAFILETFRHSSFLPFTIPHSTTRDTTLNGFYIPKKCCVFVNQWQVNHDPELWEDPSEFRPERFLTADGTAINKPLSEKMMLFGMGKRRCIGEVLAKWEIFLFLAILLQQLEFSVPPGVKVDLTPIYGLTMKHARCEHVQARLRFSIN
Nature of the series: Inhibition of CYP1A2 in human liver microsomes using phenacetin as substrate preincubated for 5 mins followed by NADPH addition measured after 10 mins by LC-MS/MS analysis.

Series [9] addresses Cytochrome P450 2C19 (Homo sapiens, UniProt P33261). Nature of the series: Inhibition of CYP2C19 in human liver microsomes using (S)-mephenytoin as substrate preincubated for 5 mins followed by NADPH addition measured after 40 mins by LC-MS/MS analysis.
Series [10] in a line: Solubility of the compound at pH 7.4. The following applies: buffer.
Series [11] is described as follows: Solubility of the compound at pH 2.1. Conditions: buffer.
The nature of series [12]: Solubility of the compound at pH 4. Conditions: buffer.
The target in series [13] is T1, Nuclear receptor ROR-gamma. Nature of the series: Inverse agonist activity at GST-tagged RORgammat LBD (unknown origin) using fluorescein-D22 co-activator peptide as substrate incubated for 1 hr by TR-FRET assay.

Chain of Cytochrome P450 2C19 (P33261 whole entry): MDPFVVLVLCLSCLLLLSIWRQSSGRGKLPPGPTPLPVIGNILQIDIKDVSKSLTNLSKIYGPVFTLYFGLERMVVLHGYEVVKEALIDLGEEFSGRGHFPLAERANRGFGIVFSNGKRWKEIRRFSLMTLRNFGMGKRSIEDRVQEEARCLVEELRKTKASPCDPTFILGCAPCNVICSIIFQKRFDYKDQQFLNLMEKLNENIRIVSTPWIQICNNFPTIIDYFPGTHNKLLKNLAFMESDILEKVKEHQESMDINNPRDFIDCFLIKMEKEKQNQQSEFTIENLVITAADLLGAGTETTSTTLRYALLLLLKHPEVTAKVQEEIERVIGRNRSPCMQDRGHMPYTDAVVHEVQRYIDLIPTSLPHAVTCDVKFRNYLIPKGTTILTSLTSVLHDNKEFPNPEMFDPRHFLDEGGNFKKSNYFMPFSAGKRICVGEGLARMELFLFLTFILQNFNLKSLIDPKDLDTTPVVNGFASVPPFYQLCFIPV
Chain of Cytochrome P450 2C9 (P11712 whole entry): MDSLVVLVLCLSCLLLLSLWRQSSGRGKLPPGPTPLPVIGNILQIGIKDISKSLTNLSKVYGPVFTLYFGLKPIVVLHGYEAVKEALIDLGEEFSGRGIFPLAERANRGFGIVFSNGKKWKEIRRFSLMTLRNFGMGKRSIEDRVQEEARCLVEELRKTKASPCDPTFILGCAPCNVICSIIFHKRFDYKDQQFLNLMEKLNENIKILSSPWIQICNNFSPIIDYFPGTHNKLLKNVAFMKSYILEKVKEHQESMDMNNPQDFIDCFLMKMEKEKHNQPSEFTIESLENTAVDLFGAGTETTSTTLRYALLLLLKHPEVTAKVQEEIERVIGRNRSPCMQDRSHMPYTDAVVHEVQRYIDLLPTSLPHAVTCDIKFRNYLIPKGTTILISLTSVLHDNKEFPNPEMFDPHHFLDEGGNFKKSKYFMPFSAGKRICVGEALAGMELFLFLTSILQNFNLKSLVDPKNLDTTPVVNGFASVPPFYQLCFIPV
Chain of Cytochrome P450 3A4 (P08684 whole entry): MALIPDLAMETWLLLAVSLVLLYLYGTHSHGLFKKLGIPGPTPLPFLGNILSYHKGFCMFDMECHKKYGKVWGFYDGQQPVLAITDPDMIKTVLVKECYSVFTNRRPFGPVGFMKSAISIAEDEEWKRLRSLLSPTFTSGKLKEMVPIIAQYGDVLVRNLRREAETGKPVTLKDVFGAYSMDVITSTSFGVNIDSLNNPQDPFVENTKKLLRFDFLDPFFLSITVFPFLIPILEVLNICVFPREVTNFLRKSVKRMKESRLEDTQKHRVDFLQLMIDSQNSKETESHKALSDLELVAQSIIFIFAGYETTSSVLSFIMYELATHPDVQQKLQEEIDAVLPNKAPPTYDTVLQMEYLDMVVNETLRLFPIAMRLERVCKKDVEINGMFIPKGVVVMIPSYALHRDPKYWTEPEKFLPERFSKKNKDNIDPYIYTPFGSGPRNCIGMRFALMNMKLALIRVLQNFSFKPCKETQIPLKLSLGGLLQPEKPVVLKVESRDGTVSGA
Chain of Cytochrome P450 2D6 (P10635 whole entry): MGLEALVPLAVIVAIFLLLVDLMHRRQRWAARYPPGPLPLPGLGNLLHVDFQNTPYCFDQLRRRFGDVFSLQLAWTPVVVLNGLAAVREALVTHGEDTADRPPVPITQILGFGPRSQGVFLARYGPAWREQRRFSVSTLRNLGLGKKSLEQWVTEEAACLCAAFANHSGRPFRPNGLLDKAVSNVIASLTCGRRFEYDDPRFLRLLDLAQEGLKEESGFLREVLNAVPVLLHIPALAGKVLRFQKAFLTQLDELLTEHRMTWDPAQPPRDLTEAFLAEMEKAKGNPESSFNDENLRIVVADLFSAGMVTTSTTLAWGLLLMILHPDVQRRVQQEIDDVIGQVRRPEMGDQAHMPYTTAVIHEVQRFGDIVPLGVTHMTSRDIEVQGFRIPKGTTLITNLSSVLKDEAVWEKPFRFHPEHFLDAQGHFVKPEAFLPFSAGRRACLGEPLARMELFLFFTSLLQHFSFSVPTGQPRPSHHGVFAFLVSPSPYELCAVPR

The IC50 is the concentration at which inhibition is half-maximal. As to `O=C(O)c1ccc(-n2cc(C(=O)c3c(F)cccc3F)c3ccccc32)cc1`, the remaining at 0.5 h, 1 µM was 94% in series [1], 88% in series [2] and 92% in [3]. Further, the IC50 in [4] is 445 nM.
On to `Cc1cccc(Cl)c1C(=O)c1cn(-c2ccc(C(=O)O)cc2)c2cccc(F)c12`, for which the remaining at 0.5 h, 1 µM in series [1] was 80%; in series [2] it was 70%; in series [3] it was 77%. In addition, the IC50 in [4] came out at 93 nM.
As to `O=C(O)c1cc(Cl)c(-n2cc(C(=O)c3c(Cl)cccc3Cl)c3ccccc32)c(Cl)c1`, the IC50 in series [4] was 506 nM.
For the compound `O=C(O)c1ccc(-n2cc(C(=O)c3c(Cl)cccc3Cl)c3cccc(Cl)c32)cc1`, in series [1], the remaining at 0.5 h, 1 µM was found to be 76%. In series [4], the IC50 was 70 nM.
On to `O=C(O)c1ccc(-n2cc(C(=O)c3c(Cl)cccc3Cl)c3c(F)cccc32)c(F)c1`, for which the results for the remaining at 0.5 h, 1 µM in series [1], in [2] and in series [3] were 100%, 44% and 88%, respectively. The IC50 in [5] was > 50000 nM; in [4] it was 37 nM; in series [6], 8010 nM; in series [7], 8340 nM; in series [8], > 50000 nM; in series [9] it was > 50000 nM.
Regarding `O=C(O)c1ccc(-n2cc(C(=O)c3ccccc3Cl)c3ccccc32)cc1`, in [1], the remaining at 0.5 h, 1 µM was 96%. Also, the IC50 in series [4] was found to be 205 nM.
For `Cc1cc(-n2cc(C(=O)c3c(Cl)cccc3Cl)c3ccccc32)ccc1C(=O)O`, the IC50 in series [4] stood at 2010 nM.
For the compound `O=C(O)c1ccc(-n2cc(C(=O)c3c(F)cc(F)cc3Cl)c3ccccc32)cc1`, in [4], the IC50 turned out to be 210 nM.
Regarding `O=C(O)c1ccc(-n2cc(C(=O)c3c(Cl)cccc3Cl)c3cc(F)ccc32)cc1`, the remaining at 0.5 h, 1 µM amounted to 82% in series [1], 76% in [2] and 87% in [3]. The IC50 in series [4] stood at 251 nM.
For the compound `Cc1cccc(Cl)c1C(=O)c1cn(-c2ccc(C(=O)O)cc2F)c2ccccc12`, the remaining at 0.5 h, 1 µM in series [1] is 84%; in [2] it was 46%; in [3], 59%. The IC50 in series [4] worked out at 21 nM.
For `O=C(O)c1ccc(-n2cc(C(=O)c3c(Cl)cccc3Cl)c3ccc(F)cc32)cc1`, the remaining at 0.5 h, 1 µM in [1] was 80%; in series [2], 61%; in [3], 91%. The IC50 in [4] was 199 nM.
Turning to `Cc1cccc(Cl)c1C(=O)c1cn(-c2ccc(C(=O)O)cc2)c2c(F)cccc12`, the remaining at 0.5 h, 1 µM stood at 80% in series [1], 70% in [2] and 66% in series [3]. For the same compound, the 50% inhibitory concentration (IC50) is > 50000 nM in series [5]; 11 nM in series [4]; 32000 nM in series [6]; 27200 nM in series [7]; > 50000 nM in series [9].
One may read the solubility as the concentration that dissolves in the medium under given conditions. A high value points to a readily soluble substance. On to `O=C([O-])c1ccc(-n2cc(C(=O)c3c(Cl)cccc3Cl)c3ccccc32)cc1.[Na+]`, for which the solubility in series [10] was > 2000 µM; in series [11], 52 µM; in series [12], 30 µM.
For the compound `O=C(O)c1ccc(-n2cc(C(=O)c3c(Cl)cccc3Cl)c3ccccc32)cc1O`, the remaining at 0.5 h, 1 µM in series [1] was found to be 77%; in series [2], 3%; in series [3], 68%. For the same compound, the IC50 in series [4] was 5 nM.
The corresponding values for `O=C(O)c1ccc(-n2cc(C(=O)c3c(Cl)cccc3Cl)c3ccccc32)cc1C(F)(F)F` are 61%, 61%, 71% and > 1000 nM.
The corresponding values for `O=C(O)c1ccc(-n2cc(C(=O)c3c(Cl)cccc3Cl)c3ccccc32)c(Cl)c1` are 64%, 48%, 76% and 124 nM.
`O=C(O)c1ccc(-n2cc(C(=O)c3c(Cl)cccc3Cl)c3ccccc32)c(F)c1F`: the remaining at 0.5 h, 1 µM in [1] amounted to 100%. Further, the IC50 in series [4] is 75 nM.
As for `O=C(O)c1ccc(-n2cc(C(=O)c3c(Cl)cccc3Cl)c3ccccc32)c(C(F)(F)F)c1`, the remaining at 0.5 h, 1 µM in series [1] was determined as 85%; in series [2], 45%; in series [3], 99%. The 50% inhibitory concentration (IC50) in series [4] is > 3000 nM.
As to `O=C(O)c1ccc(-n2cc(C(=O)c3c(Cl)cccc3C(F)(F)F)c3cccnc32)cc1`, the remaining at 0.5 h, 1 µM was found to be 84% in series [1], 55% in [2] and 83% in [3]. Further, in series [4], the IC50 turned out to be 44 nM.
The corresponding values for `Cc1cccc(Cl)c1C(=O)c1cn(-c2ccc(C(=O)O)cc2F)c2cccc(F)c12` are 68%, 43%, 75% and 36 nM.
For the compound `Cc1c(C(=O)c2c(Cl)cccc2Cl)c2ccccc2n1-c1ccc(C(=O)O)cc1`, the values for the IC50 in [13] and in series [4] were 156 nM and > 5000 nM, respectively. The remaining at 0.5 h, 1 µM in series [1] was found to be 92%.
As to `O=C(O)c1ccc(-n2cc(C(=O)c3c(Cl)cccc3Cl)c3cccc(F)c32)c(F)c1`, the remaining at 0.5 h, 1 µM in [1] is 72%; in series [2] it was 73%; in [3], 65%.
For `O=C(O)c1cc(F)c(-n2cc(C(=O)c3c(Cl)cccc3Cl)c3ccccc32)c(F)c1`, the remaining at 0.5 h, 1 µM in [1] was found to be 75%; in series [2] it was 30%; in series [3], 94%. The IC50 in series [4] turned out to be 10 nM.
Regarding `COc1cccc2c(C(=O)c3c(Cl)cccc3Cl)cn(-c3ccc(C(=O)O)cc3)c12`, the IC50 came out at 350 nM in series [13] and 731 nM in series [4]. Besides, the remaining at 0.5 h, 1 µM in [1] was 83%.
Regarding `O=C(O)c1ccc(-n2cc(C(=O)c3c(Cl)cccc3Cl)c3ccccc32)cc1F`, the remaining at 0.5 h, 1 µM in series [1] is 92%. Further, in [4], the IC50 is 290 nM.
For the compound `O=C(O)c1ccc(-n2cc(C(=O)c3c(Cl)cccc3C(F)(F)F)c3c(F)cccc32)cc1`, the remaining at 0.5 h, 1 µM in series [1] is 96%; in series [2], 65%; in series [3], 79%. Also, the IC50 in series [5] was > 50000 nM; in series [4], 38 nM; in [6] it was 22600 nM; in series [7], 16400 nM; in [8], > 50000 nM; in series [9] it was 50000 nM.
In the case of `Cc1cccc2c(C(=O)c3ccccc3Cl)cn(-c3ccc(C(=O)O)cc3F)c12`, the results for the IC50 in series [13] and in series [4] were 8.1 nM and 119 nM, respectively. In series [1], the remaining at 0.5 h, 1 µM came out at 67%.
Regarding `O=C(O)c1ccc(-n2cc(C(=O)c3c(Cl)cc(Cl)cc3Cl)c3ccccc32)cc1`, the remaining at 0.5 h, 1 µM in [1] was found to be 90%. For the same compound, the IC50 in [4] came to 107 nM.
Regarding `Cc1cc(C(=O)O)ccc1-n1cc(C(=O)c2c(Cl)cccc2Cl)c2ccccc21`, the IC50 in series [4] came out at 213 nM.
Turning to `Cc1cccc(Cl)c1C(=O)c1cn(-c2ccc(C(=O)O)cc2F)c2ncccc12`, the figures for the remaining at 0.5 h, 1 µM in series [1], in series [2] and in series [3] were 93%, 73% and 88%, respectively. For the same compound, the solubility was 1960 µM (≈ 803 µg/mL) in series [10], < 1 µM in series [11] and 1 µM (≈ 0.409 µg/mL) in [12]. Besides, the IC50 in series [4] was 27 nM; in series [7] it was > 50000 nM; in [8], > 50000 nM; in series [9], > 50000 nM.
